Measured values published in ChEMBL document CHEMBL5584348, “Exploring Degradation of Intrinsically Disordered Protein Yes-Associated Protein Induced by Proteolysis TArgeting Chimeras” (J Med Chem, 2024).
Calls of active or inactive are those of the source. No cut-off for these calls is given here.

Assays:
[1] = Tmax in Sprague-Dawley rat at 35 mg/kg, ip measured upto 24 hrs by LC-MS/MS analysis; assay type: ADME, organism-based; conditions: in vivo
[2] = Toxicity in immunodeficient male NSG mouse xenografted with human Huh-7 cells assessed as change in triglyceride content in liver at 35 mg/kg, ip administered every 3 days for 24 days; assay type: organism-based; conditions: in vivo, 576 h, time 24 day
[3] = biological target: T1, von Hippel-Lindau disease tumor suppressor/Transcriptional coactivator YAP1 (Homo sapiens, UniProt P40337+P46937); experiment: PROTAC activity at YAP/VHL in human Huh-7 cells assessed as induction of YAP degradation at 20 uM pretreated with VHL ligand 2 for 2 hrs followed by compound addition and measured after 24 hrs by Western blot analysis; assay type: cell-based
Target sequence in this assay (P40337 whole entry, looked up): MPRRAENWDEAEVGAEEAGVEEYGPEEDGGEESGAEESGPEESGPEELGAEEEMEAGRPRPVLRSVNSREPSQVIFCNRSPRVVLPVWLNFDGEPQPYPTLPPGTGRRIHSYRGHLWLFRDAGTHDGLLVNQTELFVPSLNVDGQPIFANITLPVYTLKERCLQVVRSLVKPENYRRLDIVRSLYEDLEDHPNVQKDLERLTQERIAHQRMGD
Target sequence in this assay (P46937 whole entry, looked up): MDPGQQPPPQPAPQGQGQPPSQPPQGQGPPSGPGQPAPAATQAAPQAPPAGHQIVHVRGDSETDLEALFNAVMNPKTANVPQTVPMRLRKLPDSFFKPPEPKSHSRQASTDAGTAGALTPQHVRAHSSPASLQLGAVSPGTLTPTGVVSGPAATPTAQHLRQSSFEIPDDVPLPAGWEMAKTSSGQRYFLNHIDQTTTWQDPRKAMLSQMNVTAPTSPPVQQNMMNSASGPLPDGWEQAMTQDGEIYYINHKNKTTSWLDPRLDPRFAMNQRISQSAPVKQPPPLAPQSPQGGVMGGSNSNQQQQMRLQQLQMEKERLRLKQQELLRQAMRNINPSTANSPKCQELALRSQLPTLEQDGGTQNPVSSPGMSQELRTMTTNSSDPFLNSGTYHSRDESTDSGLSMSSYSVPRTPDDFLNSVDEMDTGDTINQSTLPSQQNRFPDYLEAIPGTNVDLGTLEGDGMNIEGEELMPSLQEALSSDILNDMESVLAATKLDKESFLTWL

[4] = AUClast in Sprague-Dawley rat at 35 mg/kg, ip measured upto 24 hrs by LC-MS/MS analysis; assay type: ADME, organism-based; conditions: in vivo
Huh-7 [5] = experiment: Antitumor activity against human Huh-7 cells xenografted in immunodeficient male NSG mouse assessed as inhibition of tumor growth at 35 mg/kg, ip administered for 3 days; assay type: functional, organism-based; conditions: time 3.0 day
AML12 = experiment: Antiproliferative activity against mouse AML12 cells assessed as suppression of cell proliferation incubated for 4 days by CCK-8 assay; assay type: toxicity, cell-based; conditions: aml12, 96 h, time 4 day
[6] = AUC (0 to infinity) in Sprague-Dawley rat at 35 mg/kg, ip measured upto 24 hrs by LC-MS/MS analysis; assay type: ADME, organism-based; conditions: in vivo
Huh-7 [7] = experiment: Antitumor activity against human Huh-7 cells xenografted in immunodeficient male NSG mouse assessed as suppression of YAP expression at 35 mg/kg, ip administered every 3 days for 24 days; assay type: functional, organism-based; conditions: time 24.0 day
NCI-H226 [8] = experiment: Antiproliferative activity against NF2 deficient- human NCI-H226 cells assessed as maximum cell growth inhibition incubated for 4 days by CCK-8 assay relative to control; assay type: functional; conditions: time 4 day
[9] = biological target: T1, von Hippel-Lindau disease tumor suppressor/Transcriptional coactivator YAP1; experiment: PROTAC activity at YAP/VHL in human NCI-H226 cells assessed as induction of YAP degradation at 2.5 to 20 uM incubated for 48 hrs by Western blot analysis relative to control; assay type: cell-based; conditions: dose 2.5-20 µM
Target sequence in this assay (P40337 whole entry, looked up): as the sequence (P40337 whole entry, looked up) above
Target sequence in this assay (P46937 whole entry, looked up): as the sequence (P46937 whole entry, looked up) above

Huh-7 [10] = experiment: Antiproliferative activity against human Huh-7 cells overexpressing YAP assessed as suppression of cell proliferation incubated for 4 days by CCK-8 assay; assay type: functional, cell-based; conditions: time 4.0 day
[11] = MRT (0 to infinity) in Sprague-Dawley rat at 35 mg/kg, ip measured upto 24 hrs by LC-MS/MS analysis; assay type: ADME, organism-based; conditions: in vivo
Huh-7 [12] = experiment: Antitumor activity against human Huh-7 cells xenografted in immunodeficient male NSG mouse assessed as tumor growth inhibition at 35 mg/kg, ip administered every 3 days for 24 days in presence of sorafenib; assay type: functional; conditions: Huh-7, 576 h, time 24 day, read-out: TGI
[13] = biological target: Transcriptional coactivator YAP1 (Homo sapiens) (UniProt P46937); experiment: Inhibition of YAP nuclear localization in human Huh-7 cells assessed as decrease in mean YAP intensity incubated for 12 hrs by immunofluorescence based microscopic analysis; assay type: cell-based; conditions: dose <= 20.0 µM
[14] = biological target: T2, von Hippel-Lindau disease tumor suppressor/WW domain-containing transcription regulator protein 1 (Homo sapiens) (UniProt P40337+Q9GZV5); experiment: PROTAC activity at TAZ/VHL in human Huh-7 cells assessed as induction of TAZ degradation at 5 to 20 uM incubated for 24 hrs by Western blot analysis; assay type: cell-based; conditions: dose 5-20 µM
[15] = Cmax in Sprague-Dawley rat at 35 mg/kg, ip measured upto 24 hrs by LC-MS/MS analysis; assay type: ADME, organism-based; conditions: in vivo
[16] = biological target: T1, von Hippel-Lindau disease tumor suppressor/Transcriptional coactivator YAP1; experiment: PROTAC activity at YAP/VHL in human Huh-7 cells assessed as induction of YAP degradation at 20 uM incubated at 48 hrs by Western blot analysis; assay type: cell-based
Target sequence in this assay (P40337 whole entry, looked up): as the sequence (P40337 whole entry, looked up) above
Target sequence in this assay (P46937 whole entry, looked up): as the sequence (P46937 whole entry, looked up) above

[17] = Toxicity in immunodeficient male NSG mouse xenografted with human Huh-7 cells assessed as change in total bilirubin level in liver at 35 mg/kg, ip administered every 3 days for 24 days; assay type: organism-based; conditions: in vivo, 576 h, time 24 day
[18] = biological target: T1, von Hippel-Lindau disease tumor suppressor/Transcriptional coactivator YAP1; experiment: PROTAC activity at YAP/VHL in human NCI-H226 cells assessed as induction of YAP degradation at 20 uM incubated at 48 hrs by Western blot analysis; assay type: cell-based
Target sequence in this assay (P40337 whole entry, looked up): as the sequence (P40337 whole entry, looked up) above
Target sequence in this assay (P46937 whole entry, looked up): as the sequence (P46937 whole entry, looked up) above

NCI-H226 [19] = experiment: Antiproliferative activity against NF2 deficient- human NCI-H226 cells assessed as cell growth inhibition incubated for 4 days by CCK-8 assay; assay type: functional, cell-based; conditions: NCI-H226, 96 h
[20] = biological target: T1, von Hippel-Lindau disease tumor suppressor/Transcriptional coactivator YAP1; experiment: PROTAC activity at YAP/VHL in human NCI-H226 cells assessed as induction of YAP degradation incubated for 48 hrs by Western blot analysis; assay type: cell-based
Target sequence in this assay (P40337 whole entry): as the sequence (P40337 whole entry, looked up) above
Target sequence in this assay (P46937 whole entry): as the sequence (P46937 whole entry, looked up) above

[21] = biological target: T1, von Hippel-Lindau disease tumor suppressor/Transcriptional coactivator YAP1; experiment: PROTAC activity at YAP/VHL in human Huh-7 cells assessed as reduction on CTGF expression incubated for 48 hrs by Western blot analysis; assay type: cell-based; conditions: dose 2.5-20 µM
Target sequence in this assay (P40337 whole entry, looked up): as the sequence (P40337 whole entry, looked up) above
Target sequence in this assay (P46937 whole entry, looked up): as the sequence (P46937 whole entry, looked up) above

[22] = Toxicity in immunodeficient male NSG mouse xenografted with human Huh-7 cells assessed as change in ALT level in liver at 35 mg/kg, ip administered every 3 days for 24 days; assay type: organism-based; conditions: in vivo, 576 h, time 24 day
[23] = biological target: T2, von Hippel-Lindau disease tumor suppressor/WW domain-containing transcription regulator protein 1 (Homo sapiens); experiment: PROTAC activity at TAZ/VHL in human Huh-7 cells assessed as reduction in TAZ expression incubated for 24 hrs by Western blot analysis; assay type: cell-based; conditions: dose 5-20 µM
[24] = biological target: T1, von Hippel-Lindau disease tumor suppressor/Transcriptional coactivator YAP1; experiment: PROTAC activity at YAP/VHL in human Huh-7 cells assessed as induction of YAP degradation at 20 uM measured for 24 hrs in presence of MLN-4924 by Western blot analysis; assay type: cell-based
Target sequence in this assay (P40337 whole entry, looked up): as the sequence (P40337 whole entry, looked up) above
Target sequence in this assay (P46937 whole entry, looked up): as the sequence (P46937 whole entry, looked up) above

[25] = Toxicity in immunodeficient male NSG mouse xenografted with human Huh-7 cells assessed as change in AST level in liver at 35 mg/kg, ip administered every 3 days for 24 days; assay type: organism-based; conditions: in vivo, 576 h, time 24 day
NCI-H2452 = experiment: Antiproliferative activity against human NCI-H2452 cells expressing NF2 assessed as reduction in cell viability incubated for 4 days by CCK-8 assay; assay type: functional, cell-based; conditions: time 4.0 day
[26] = biological target: T1, von Hippel-Lindau disease tumor suppressor/Transcriptional coactivator YAP1; experiment: PROTAC activity at YAP/VHL in human Huh-7 cells assessed as induction of YAP degradation at 10 uM measured for 24 hrs by Western blot analysis relative to control; assay type: cell-based
[27] = Toxicity in immunodeficient male NSG mouse xenografted with human Huh-7 cells assessed as change in body weight at 35 mg/kg, ip administered every 3 days for 24 days; assay type: organism-based; conditions: in vivo, 576 h, time 24 day
[28] = biological target: T1, von Hippel-Lindau disease tumor suppressor/Transcriptional coactivator YAP1; experiment: PROTAC activity at YAP/VHL in human Huh-7 cells assessed as induction of YAP degradation at 20 uM measured for 24 hrs by Western blot analysis relative to control; assay type: cell-based
NCI-H226 [29] = experiment: Antiproliferative activity against human NCI-H226 cells assessed as cell killing at 10 uM incubated for 3 days by CCK-8 assay; assay type: functional, cell-based; conditions: time 3.0 day
Huh-7 [30] = experiment: Antitumor activity against human Huh-7 cells xenografted in immunodeficient male NSG mouse assessed as reduction in CYR61 level at 35 mg/kg, ip administered every 3 days for 24 days by Western blot analysis; assay type: functional, organism-based; conditions: time 24.0 day
Huh-7 [31] = experiment: Antitumor activity against human Huh-7 cells xenografted in immunodeficient male NSG mouse assessed as tumor growth inhibition at 35 mg/kg, ip administered every 3 days for 24 days; assay type: functional; conditions: Huh-7, 576 h, time 24 day, read-out: TGI
[32] = Toxicity in immunodeficient male NSG mouse xenografted with human Huh-7 cells assessed as morphological abnormalities in liver at 35 mg/kg, ip administered every 3 days for 24 days by H and E staining based analysis; assay type: organism-based; conditions: in vivo, 576 h, time 24 day

T2 sequence (P40337 whole entry, looked up, the tested form may be a part): as the sequence (P40337 whole entry, looked up) above
T2 sequence (Q9GZV5 whole entry, looked up, the tested form may be a part): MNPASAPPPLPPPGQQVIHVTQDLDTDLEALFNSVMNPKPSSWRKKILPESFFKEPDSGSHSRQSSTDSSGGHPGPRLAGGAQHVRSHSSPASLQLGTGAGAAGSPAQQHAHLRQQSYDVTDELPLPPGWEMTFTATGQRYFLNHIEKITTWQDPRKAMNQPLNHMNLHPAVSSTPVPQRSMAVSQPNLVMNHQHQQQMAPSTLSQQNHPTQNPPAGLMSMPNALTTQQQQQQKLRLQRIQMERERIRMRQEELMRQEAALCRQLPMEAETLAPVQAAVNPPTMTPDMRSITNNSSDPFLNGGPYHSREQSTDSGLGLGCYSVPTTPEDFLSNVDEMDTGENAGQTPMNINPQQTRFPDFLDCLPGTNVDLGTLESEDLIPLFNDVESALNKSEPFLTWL
Transcriptional coactivator YAP1 (Homo sapiens), sequence (P46937 whole entry, the tested form may be a part): as the sequence (P46937 whole entry, looked up) above

- Tmax [1]: 3.33 h
- Activity [3]: Active
- AUC(0-t) at 24 h [4]: 1940 ng·h/mL
- AUC(0-inf) [6]: 2690 ng·h/mL
- Emax [9]: 97%
- MRT inf [11]: 19.9 h
- inhibition [13]: Dose-Dependent Effect
- Activity [14]: Active
- Cmax [15]: 193 ng/mL
- Activity [16]: 98%
- Activity [18]: 97%
- IC50 (NCI-H226 [19]): 15.3 µM
- DC50 [20]: 8.2 µM
- Activity [21]: Dose-Dependent Effect
- Activity [23]: Dose-Dependent Effect
- Activity [24]: Active
- Activity [26]: 50%
- Activity [28]: 78%
Compound: COc1cc(-c2cc(-c3ccccc3)nc3c2CC(=O)Nc2ccccc2-3)ccc1OCCOCCOCCC(=O)N[C@H](C(=O)N1C[C@H](O)C[C@H]1C(=O)N[C@@H](C)c1ccc(-c2scnc2C)cc1)C(C)(C)C
- Activity [2]: Non-Toxic
- Activity (Huh-7 [5]): Active
- Activity (AML12): Non-Toxic
- Activity (Huh-7 [7]): Active
- inhibition (INH) (NCI-H226 [8]): 60%
- Activity (Huh-7 [10]): Active
- inhibition in vivo at 35 mg/kg (Huh-7 [12]): 93%
- Activity [17]: Non-Toxic
- Activity [22]: Non-Toxic
- Activity [25]: Non-Toxic
- Activity (NCI-H2452): inactive
- Activity [27]: Non-Toxic
- Activity (NCI-H226 [29]): inactive
- Activity (Huh-7 [30]): Active
- inhibition in vivo at 35 mg/kg (Huh-7 [31]): 82%
- Activity [32]: Non-Toxic
